The source of these data is patent US20240366589A1, “NHE3-BINDING COMPOUNDS AND METHODS FOR INHIBITING PHOSPHATE TRANSPORT” (Ardelyx, Inc., priority 2013, published 2024).

One assay deals with T1, Human NHE3 (Homo sapiens, UniProt P48764).
T1 construct: expressed in transfected cells; host or cells: Opossum kidney (OK) cells (ATCC), electroporation
T1 sequence (P48764 26-834): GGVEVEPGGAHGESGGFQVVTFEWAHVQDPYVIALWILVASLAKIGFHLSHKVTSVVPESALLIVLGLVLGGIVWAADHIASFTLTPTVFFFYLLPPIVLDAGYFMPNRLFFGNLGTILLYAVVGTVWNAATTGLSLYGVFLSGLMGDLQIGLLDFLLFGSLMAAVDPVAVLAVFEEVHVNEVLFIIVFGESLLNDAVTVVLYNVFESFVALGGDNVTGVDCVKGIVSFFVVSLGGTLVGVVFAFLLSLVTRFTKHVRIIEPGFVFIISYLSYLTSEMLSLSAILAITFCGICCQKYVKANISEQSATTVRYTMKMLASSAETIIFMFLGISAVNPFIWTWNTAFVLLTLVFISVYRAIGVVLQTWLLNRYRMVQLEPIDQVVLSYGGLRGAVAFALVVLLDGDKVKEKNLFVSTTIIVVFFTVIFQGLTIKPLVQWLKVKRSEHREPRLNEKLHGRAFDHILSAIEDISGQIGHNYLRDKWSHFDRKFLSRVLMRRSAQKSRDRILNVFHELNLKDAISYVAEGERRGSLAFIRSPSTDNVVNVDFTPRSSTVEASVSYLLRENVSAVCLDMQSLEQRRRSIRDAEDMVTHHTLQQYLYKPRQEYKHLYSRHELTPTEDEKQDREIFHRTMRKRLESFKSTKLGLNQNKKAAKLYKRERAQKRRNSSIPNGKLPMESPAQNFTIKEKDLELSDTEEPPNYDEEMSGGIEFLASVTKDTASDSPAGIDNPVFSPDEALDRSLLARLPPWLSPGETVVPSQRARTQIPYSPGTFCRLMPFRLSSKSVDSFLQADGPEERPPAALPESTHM
The assay is described as follows: Cell-based NHE3 activity under prompt conditions (OK cells, BCECF pH recovery), human NHE3. Particulars: prompt conditions. The method, boiled down:
(§1)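 Cells (OK line, electroporated with rat or human NHE3) are washed in NaCl-HEPES pH 7.4, then dye-loaded 30 min at room temperature with 5 μM BCECF-AM in NH4Cl buffer.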

The test system of assay [1] is absorption of sodium from the intestinal lumen. The assay is described as follows: Fecal form score (FFS) 16 h after oral dose in rats. It is filed as in vivo, rat. The conditions noted are these: oral gavage, 16 h post-dose, scale 1-5. The method, boiled down: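 Eight-week-old Sprague-Dawley rats (n=6) dosed by oral gavage with compound or water vehicle between 4 and 5 PM, then housed in metabolic cages with food and water ad libitum. At 16 h, fecal form scored 1 (normal pellet) to 5 (liquid streams) by two observers; group mean reported.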

For a further assay, the target named is T2, Rat NHE3 (Rattus norvegicus, UniProt P26433).
T2 construct: expressed in transfected cells; host or cells: Opossum kidney (OK) cells (ATCC), electroporation
T2 sequence (P26433 29-831): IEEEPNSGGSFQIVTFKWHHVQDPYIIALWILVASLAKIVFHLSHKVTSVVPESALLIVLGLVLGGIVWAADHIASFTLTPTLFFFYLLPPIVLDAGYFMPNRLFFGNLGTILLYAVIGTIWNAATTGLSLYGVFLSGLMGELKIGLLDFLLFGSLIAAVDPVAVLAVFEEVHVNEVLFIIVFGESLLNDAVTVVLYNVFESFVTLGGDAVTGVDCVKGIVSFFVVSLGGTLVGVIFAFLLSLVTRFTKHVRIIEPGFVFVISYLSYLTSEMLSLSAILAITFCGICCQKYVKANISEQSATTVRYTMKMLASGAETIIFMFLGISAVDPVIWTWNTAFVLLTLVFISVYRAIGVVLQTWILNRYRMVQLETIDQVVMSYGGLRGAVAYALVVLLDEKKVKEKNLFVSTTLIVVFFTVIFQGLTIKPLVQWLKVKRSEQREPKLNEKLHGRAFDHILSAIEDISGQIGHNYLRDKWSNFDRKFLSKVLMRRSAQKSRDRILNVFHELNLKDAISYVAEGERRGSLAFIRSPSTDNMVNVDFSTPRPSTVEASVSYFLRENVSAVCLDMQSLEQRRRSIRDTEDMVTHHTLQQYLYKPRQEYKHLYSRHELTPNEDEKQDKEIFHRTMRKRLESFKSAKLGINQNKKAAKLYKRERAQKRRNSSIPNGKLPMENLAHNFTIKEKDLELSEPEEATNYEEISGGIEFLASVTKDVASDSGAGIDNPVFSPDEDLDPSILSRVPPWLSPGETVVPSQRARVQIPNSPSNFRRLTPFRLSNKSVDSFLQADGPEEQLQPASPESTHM
The assay is described as follows: Cell-based NHE3 activity under prompt conditions (OK cells, BCECF pH recovery), rat NHE3. The conditions noted are these: prompt conditions. The method, boiled down: as §1

In assay [2] the test system is absorption of sodium from the intestinal lumen. The assay is described as follows: Inhibition of intestinal sodium absorption: urinary sodium (uNa) 16 h after single oral dose in rats. Particulars: oral gavage, 16 h post-dose. It is filed as in vivo, rat. The procedure, abridged: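 Eight-week-old Sprague-Dawley rats (n=6) given single oral gavage of compound or water vehicle in the late afternoon, then kept in metabolic cages with chow and water ad libitum. Urine collected over 16 h; sodium quantified by ion chromatography and expressed as % of vehicle mean, compared by one-way ANOVA with Dunnett's test.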

Assay [3] relates to phosphorus and calcium levels in the urine of rats. The assay is described as follows: Urinary excretion of phosphate and calcium in rats (16 h overnight urine). Particulars: rats, oral gavage, 16 h post-dose. It is filed as in vivo, rat.

On to `O=C(NCCCCNC(=O)NCCOCCOCCNC(=O)Nc1cccc(O[C@H]2c3ccccc3C[C@@H]2N2CCCCC2)c1)NCCOCCOCCNC(=O)Nc1cccc(O[C@H]2c3ccccc3C[C@@H]2N2CCCCC2)c1` [compound 126], for which the “Prompt Human NHE3 pIC50” value on Human NHE3 is reported as 6.55. In assay [1] (dose 10 mg/kg), the “Fecal Form Score average” value was found to be 1. Moreover, the “Prompt Rat NHE3 pIC50” value on Rat NHE3 is given as under 5.00. In addition, the “Urine Na % of control” value in assay [2] (dose 10 mg/kg) was determined as 93%. Further, the “Urine P % of control” value in assay [3] (dose 10 mg/kg) is 94%.
As for `CN(C)[C@H]1Cc2c(Cl)cc(Cl)cc2[C@@H]1Oc1ccc(S(=O)(=O)NCCOCCOCCNC(=O)NCCCCNC(=O)NCCOCCOCCNS(=O)(=O)c2ccc(O[C@H]3c4cc(Cl)cc(Cl)c4C[C@@H]3N(C)C)cc2)cc1` [compound 127], on Human NHE3, the “Prompt Human NHE3 pIC50” value worked out at 8.30. The “Fecal Form Score average” value in assay [1] (dose 1 mg/kg), in assay [1] (dose 3 mg/kg) and in assay [1] (dose 10 mg/kg) was 1 throughout. The “Prompt Rat NHE3 pIC50” value at Rat NHE3 is on record as 8.20. Also, the figures for the “Urine Na % of control” value in assay [2] (dose 1 mg/kg), in assay [2] (dose 3 mg/kg) and in assay [2] (dose 10 mg/kg) were 55%, 39% and 9%, respectively. Besides, the “Urine P % of control” value in assay [3] (dose 1 mg/kg) worked out at 159%; in assay [3] (dose 3 mg/kg), 62%; in assay [3] (dose 10 mg/kg), 53%.
For `CN(C)CC(=O)NC(CCC(=O)NCCOCCOCCNS(=O)(=O)c1cccc([C@@H]2CN(C)Cc3c(Cl)cc(Cl)cc32)c1)(CCC(=O)NCCOCCOCCNS(=O)(=O)c1cccc([C@@H]2CN(C)Cc3c(Cl)cc(Cl)cc32)c1)CCC(=O)NCCOCCOCCNS(=O)(=O)c1cccc([C@@H]2CN(C)Cc3c(Cl)cc(Cl)cc32)c1` [compound 128], at Human NHE3, the “Prompt Human NHE3 pIC50” value is recorded as 8.00. Further, the figures for the “Fecal Form Score average” value in assay [1] (dose 1 mg/kg) and in assay [1] (dose 3 mg/kg) were 1 and 2, respectively. In addition, at Rat NHE3, the “Prompt Rat NHE3 pIC50” value is 7.10. Moreover, the “Urine Na % of control” value is reported as 46% in assay [2] (dose 1 mg/kg) and 35% in assay [2] (dose 3 mg/kg). Besides, the “Urine P % of control” value is recorded as 90% in assay [3] (dose 1 mg/kg) and 58% in assay [3] (dose 3 mg/kg).
Consider `CN1Cc2c(Cl)cc(Cl)cc2[C@H](c2cccc(S(=O)(=O)NCCOCCOCCNC(=O)CCC(CCC(=O)NCCOCCOCCNS(=O)(=O)c3cccc([C@@H]4CN(C)Cc5c(Cl)cc(Cl)cc54)c3)(CCC(=O)NCCOCCOCCNS(=O)(=O)c3cccc([C@@H]4CN(C)Cc5c(Cl)cc(Cl)cc54)c3)NC(=O)N(C)C)c2)C1` [compound 129], for which the “Prompt Human NHE3 pIC50” value on Human NHE3 is 6.90. Also, in assay [1] (dose 3 mg/kg), the “Fecal Form Score average” value was 2. Besides, the “Prompt Rat NHE3 pIC50” value at Rat NHE3 is 5.60. Moreover, the “Urine Na % of control” value in assay [2] (dose 3 mg/kg) came to 16%. For the same compound, the “Urine P % of control” value in assay [3] (dose 3 mg/kg) was 48%.
As for `CNC(=O)NC(CCC(=O)NCCOCCOCCNS(=O)(=O)c1cccc([C@@H]2CN(C)Cc3c(Cl)cc(Cl)cc32)c1)(CCC(=O)NCCOCCOCCNS(=O)(=O)c1cccc([C@@H]2CN(C)Cc3c(Cl)cc(Cl)cc32)c1)CCC(=O)NCCOCCOCCNS(=O)(=O)c1cccc([C@@H]2CN(C)Cc3c(Cl)cc(Cl)cc32)c1` [compound 130], the “Prompt Human NHE3 pIC50” value at Human NHE3 amounted to 7.20. Besides, the “Fecal Form Score average” value in assay [1] (dose 3 mg/kg) stood at 2. In addition, on Rat NHE3, the “Prompt Rat NHE3 pIC50” value is recorded as 6.10. Besides, in assay [2] (dose 3 mg/kg), the “Urine Na % of control” value worked out at 18%. Besides, the “Urine P % of control” value in assay [3] (dose 3 mg/kg) stood at 70%.
`CN1Cc2c(Cl)cc(Cl)cc2[C@H](c2cccc(S(=O)(=O)NCCOCCOCCN(C)C(=O)NCCCN(CCCNC(=O)N(C)CCOCCOCCNS(=O)(=O)c3cccc([C@@H]4CN(C)Cc5c(Cl)cc(Cl)cc54)c3)CCCNC(=O)N(C)CCOCCOCCNS(=O)(=O)c3cccc([C@@H]4CN(C)Cc5cc(Cl)cc(Cl)c54)c3)c2)C1` [compound 131]: on Human NHE3, the “Prompt Human NHE3 pIC50” value came out at 7.20. Also, in assay [1] (dose 3 mg/kg), the “Fecal Form Score average” value is 2. The IC50 at Rat NHE3 (read-out: Prompt Rat NHE3 pIC50 (converted)) was 794 nM. For the same compound, the “Urine Na % of control” value in assay [2] (dose 3 mg/kg) was determined as 38%. Besides, the “Urine P % of control” value in assay [3] (dose 3 mg/kg) was determined as 68%.
